Test results: ChEMBL document CHEMBL5036317, “Identification of Unique Quinazolone Thiazoles as Novel Structural Scaffolds for Potential Gram-Negative Bacterial Conquerors” (J Med Chem, 2021)
Converted amounts (≈) assume the structure as drawn.

Key:
[1] = test system: Klebsiella pneumoniae; assay: Antibacterial activity against Klebsiella pneumoniae assessed as inhibition of bacterial growth measured after 24 hrs by two-fold serial dilution method; format: functional
[2] = test system: Escherichia coli; assay: Antibacterial activity against Escherichia coli ATCC 25922 assessed as inhibition of bacterial growth measured after 24 hrs by two-fold serial dilution method; format: functional
[3] = test system: Staphylococcus aureus; assay: Antibacterial activity against Staphylococcus aureus assessed as inhibition of bacterial growth measured after 24 hrs by two-fold serial dilution method; format: functional
[4] = Haemolytic activity in human erythrocytes incubated for 2 hrs; format: ADME, cell-based, Erythrocyte
[5] = test system: Staphylococcus aureus; assay: Antibacterial activity against Staphylococcus aureus ATCC 29213 assessed as inhibition of bacterial growth measured after 24 hrs by two-fold serial dilution method; format: functional
[6] = test system: Pseudomonas aeruginosa; assay: Antibacterial activity against Pseudomonas aeruginosa ATCC 27853 assessed as inhibition of bacterial growth measured after 24 hrs by two-fold serial dilution method; format: functional
[7] = test system: Pseudomonas aeruginosa; assay: Antibacterial activity against Pseudomonas aeruginosa assessed as inhibition of bacterial growth measured after 24 hrs by two-fold serial dilution method; format: functional
[8] = test system: Staphylococcus aureus; assay: Antibacterial activity against Staphylococcus aureus ATCC 25923 assessed as inhibition of bacterial growth measured after 24 hrs by two-fold serial dilution method; format: functional
[9] = test system: Escherichia coli; assay: Antibacterial activity against Escherichia coli assessed as inhibition of bacterial growth measured after 24 hrs by two-fold serial dilution method; format: functional
[10] = test system: Enterococcus faecalis; assay: Antibacterial activity against Enterococcus faecalis assessed as inhibition of bacterial growth measured after 24 hrs by two-fold serial dilution method; format: functional
[11] = test system: Acinetobacter baumannii; assay: Antibacterial activity against Acinetobacter baumanii assessed as inhibition of bacterial growth measured after 24 hrs by two-fold serial dilution method; format: functional
[12] = test system: Staphylococcus aureus; assay: Antibacterial activity against methicillin-resistant Staphylococcus aureus assessed as inhibition of bacterial growth measured after 24 hrs by two-fold serial dilution method; format: functional

COc1ccc(/C=C(/C(=O)c2nccs2)n2cnc3cc(Cl)ccc3c2=O)cc1
MIC [1]: 512 µg/mL (≈ 1210 µM)
MIC [2]: 32 µg/mL (≈ 75.5 µM)
MIC [3]: 64 µg/mL (≈ 151 µM)
HC50 at 2 h [4]: 245 µg/mL
MIC [5]: 4 µg/mL (≈ 9.44 µM)
MIC [6]: 32 µg/mL (≈ 75.5 µM)
MIC [7]: 32 µg/mL (≈ 75.5 µM)
MIC [8]: 4 µg/mL (≈ 9.44 µM)
MIC [9]: 32 µg/mL (≈ 75.5 µM)
MIC [10]: 32 µg/mL (≈ 75.5 µM)
MIC [11]: 512 µg/mL (≈ 1210 µM)
MIC [12]: 8 µg/mL (≈ 18.9 µM)

O=C(/C(=C/c1ccc2ccccc2c1)n1cnc2cc(Cl)ccc2c1=O)c1nccs1
MIC [1]: 32 µg/mL (≈ 72.1 µM)
MIC [2]: 4 µg/mL (≈ 9.01 µM)
MIC [3]: 4 µg/mL (≈ 9.01 µM)
HC50 at 2 h [4]: 192 µg/mL
MIC [5]: 16 µg/mL (≈ 36 µM)
MIC [6]: 4 µg/mL (≈ 9.01 µM)
MIC [7]: 4 µg/mL (≈ 9.01 µM)
MIC [8]: 4 µg/mL (≈ 9.01 µM)
MIC [9]: 32 µg/mL (≈ 72.1 µM)
MIC [10]: 16 µg/mL (≈ 36 µM)
MIC [11]: 16 µg/mL (≈ 36 µM)
MIC [12]: 4 µg/mL (≈ 9.01 µM)

Cc1ccc(/C=C(/C(=O)c2nccs2)n2cnc3cc(Cl)ccc3c2=O)c(C)c1
MIC [1]: 512 µg/mL (≈ 1210 µM)
MIC [2]: 64 µg/mL (≈ 152 µM)
MIC [3]: 512 µg/mL (≈ 1210 µM)
HC50 at 2 h [4]: 203 µg/mL
MIC [5]: 4 µg/mL (≈ 9.48 µM)
MIC [6]: 64 µg/mL (≈ 152 µM)
MIC [7]: 64 µg/mL (≈ 152 µM)
MIC [8]: 512 µg/mL (≈ 1210 µM)
MIC [9]: 512 µg/mL (≈ 1210 µM)
MIC [10]: 512 µg/mL (≈ 1210 µM)
MIC [11]: 128 µg/mL (≈ 303 µM)
MIC [12]: 512 µg/mL (≈ 1210 µM)

N#Cc1ccc(/C=C(/C(=O)c2nccs2)n2cnc3cc(Cl)ccc3c2=O)cc1
MIC [1]: 8 µg/mL (≈ 19.1 µM)
MIC [2]: 4 µg/mL (≈ 9.55 µM)
MIC [3]: 32 µg/mL (≈ 76.4 µM)
HC50 at 2 h [4]: > 250 µg/mL
MIC [5]: 1 µg/mL (≈ 2.39 µM)
MIC [6]: 2 µg/mL (≈ 4.77 µM)
MIC [7]: 2 µg/mL (≈ 4.77 µM)
MIC [8]: 1 µg/mL (≈ 2.39 µM)
MIC [9]: 16 µg/mL (≈ 38.2 µM)
MIC [10]: 1 µg/mL (≈ 2.39 µM)
MIC [11]: 512 µg/mL (≈ 1220 µM)
MIC [12]: 4 µg/mL (≈ 9.55 µM)

O=C(/C(=C/c1ccc(F)cc1)n1cnc2cc(Cl)ccc2c1=O)c1nccs1
MIC [1]: 512 µg/mL (≈ 1240 µM)
MIC [2]: 4 µg/mL (≈ 9.71 µM)
MIC [3]: 8 µg/mL (≈ 19.4 µM)
HC50 at 2 h [4]: > 250 µg/mL
MIC [5]: 2 µg/mL (≈ 4.86 µM)
MIC [6]: 2 µg/mL (≈ 4.86 µM)
MIC [7]: 2 µg/mL (≈ 4.86 µM)
MIC [8]: 4 µg/mL (≈ 9.71 µM)
MIC [9]: 16 µg/mL (≈ 38.8 µM)
MIC [10]: 4 µg/mL (≈ 9.71 µM)
MIC [11]: 256 µg/mL (≈ 622 µM)
MIC [12]: 4 µg/mL (≈ 9.71 µM)

O=C(/C(=C/c1c[nH]c2ccccc12)n1cnc2cc(Cl)ccc2c1=O)c1nccs1
MIC [1]: 128 µg/mL (≈ 296 µM)
MIC [2]: 64 µg/mL (≈ 148 µM)
MIC [3]: 64 µg/mL (≈ 148 µM)
HC50 at 2 h [4]: > 250 µg/mL
MIC [5]: 64 µg/mL (≈ 148 µM)
MIC [6]: 64 µg/mL (≈ 148 µM)
MIC [7]: 256 µg/mL (≈ 591 µM)
MIC [8]: 64 µg/mL (≈ 148 µM)
MIC [9]: 64 µg/mL (≈ 148 µM)
MIC [10]: 256 µg/mL (≈ 591 µM)
MIC [11]: 256 µg/mL (≈ 591 µM)
MIC [12]: 256 µg/mL (≈ 591 µM)

O=C(/C(=C/c1ccc(C(F)(F)F)cc1)n1cnc2c(Cl)cc(Cl)cc2c1=O)c1nccs1
MIC [1]: 1 µg/mL (≈ 2.01 µM)
MIC [2]: 4 µg/mL (≈ 8.06 µM)
MIC [3]: 128 µg/mL (≈ 258 µM)
HC50 at 2 h [4]: > 250 µg/mL
MIC [5]: 8 µg/mL (≈ 16.1 µM)
MIC [6]: 1 µg/mL (≈ 2.01 µM)
MIC [7]: 8 µg/mL (≈ 16.1 µM)
MIC [8]: 8 µg/mL (≈ 16.1 µM)
MIC [9]: 4 µg/mL (≈ 8.06 µM)
MIC [10]: 64 µg/mL (≈ 129 µM)
MIC [11]: 1 µg/mL (≈ 2.01 µM)
MIC [12]: 4 µg/mL (≈ 8.06 µM)

O=C(/C(=C/c1ccco1)n1cnc2cc(Cl)ccc2c1=O)c1nccs1
MIC [1]: 64 µg/mL (≈ 167 µM)
MIC [2]: 16 µg/mL (≈ 41.7 µM)
MIC [3]: 64 µg/mL (≈ 167 µM)
HC50 at 2 h [4]: > 250 µg/mL
MIC [5]: 8 µg/mL (≈ 20.8 µM)
MIC [6]: 32 µg/mL (≈ 83.4 µM)
MIC [7]: 64 µg/mL (≈ 167 µM)
MIC [8]: 8 µg/mL (≈ 20.8 µM)
MIC [9]: 128 µg/mL (≈ 333 µM)
MIC [10]: 8 µg/mL (≈ 20.8 µM)
MIC [11]: 16 µg/mL (≈ 41.7 µM)
MIC [12]: 32 µg/mL (≈ 83.4 µM)

O=C(/C(=C/c1csc2ccccc12)n1cnc2cc(Cl)ccc2c1=O)c1nccs1
MIC [1]: 128 µg/mL (≈ 284 µM)
MIC [2]: 16 µg/mL (≈ 35.6 µM)
MIC [3]: 512 µg/mL (≈ 1140 µM)
HC50 at 2 h [4]: > 250 µg/mL
MIC [5]: 16 µg/mL (≈ 35.6 µM)
MIC [6]: 16 µg/mL (≈ 35.6 µM)
MIC [7]: 32 µg/mL (≈ 71.1 µM)
MIC [8]: 256 µg/mL (≈ 569 µM)
MIC [9]: 16 µg/mL (≈ 35.6 µM)
MIC [10]: 512 µg/mL (≈ 1140 µM)
MIC [11]: 32 µg/mL (≈ 71.1 µM)
MIC [12]: 512 µg/mL (≈ 1140 µM)

O=C(/C(=C/c1ncc[nH]1)n1cnc2cc(Cl)ccc2c1=O)c1nccs1
MIC [1]: 64 µg/mL (≈ 167 µM)
MIC [2]: 64 µg/mL (≈ 167 µM)
MIC [3]: 512 µg/mL (≈ 1330 µM)
HC50 at 2 h [4]: > 250 µg/mL
MIC [5]: 512 µg/mL (≈ 1330 µM)
MIC [6]: 16 µg/mL (≈ 41.7 µM)
MIC [7]: 16 µg/mL (≈ 41.7 µM)
MIC [8]: 512 µg/mL (≈ 1330 µM)
MIC [9]: 256 µg/mL (≈ 667 µM)
MIC [10]: 512 µg/mL (≈ 1330 µM)
MIC [11]: 512 µg/mL (≈ 1330 µM)
MIC [12]: 512 µg/mL (≈ 1330 µM)

O=C(/C(=C/c1ccc[nH]1)n1cnc2cc(Cl)ccc2c1=O)c1nccs1
MIC [1]: 256 µg/mL (≈ 669 µM)
MIC [2]: 64 µg/mL (≈ 167 µM)
MIC [3]: 512 µg/mL (≈ 1340 µM)
HC50 at 2 h [4]: 203 µg/mL
MIC [5]: 2 µg/mL (≈ 5.22 µM)
MIC [6]: 256 µg/mL (≈ 669 µM)
MIC [7]: 256 µg/mL (≈ 669 µM)
MIC [8]: 512 µg/mL (≈ 1340 µM)
MIC [9]: 256 µg/mL (≈ 669 µM)
MIC [10]: 512 µg/mL (≈ 1340 µM)
MIC [11]: 64 µg/mL (≈ 167 µM)
MIC [12]: 512 µg/mL (≈ 1340 µM)

O=C(/C(=C/c1ccc(Cl)cc1Cl)n1cnc2cc(Cl)ccc2c1=O)c1nccs1
MIC [1]: 1 µg/mL (≈ 2.16 µM)
MIC [2]: 2 µg/mL (≈ 4.32 µM)
MIC [3]: 32 µg/mL (≈ 69.2 µM)
HC50 at 2 h [4]: 176 µg/mL
MIC [5]: 2 µg/mL (≈ 4.32 µM)
MIC [6]: 1 µg/mL (≈ 2.16 µM)
MIC [7]: 8 µg/mL (≈ 17.3 µM)
MIC [8]: 1 µg/mL (≈ 2.16 µM)
MIC [9]: 2 µg/mL (≈ 4.32 µM)
MIC [10]: 8 µg/mL (≈ 17.3 µM)
MIC [11]: 16 µg/mL (≈ 34.6 µM)
MIC [12]: 8 µg/mL (≈ 17.3 µM)
